One data set addresses T1, DNA topoisomerase I (Homo sapiens, UniProt P11387).
T1 sequence (P11387 1-765): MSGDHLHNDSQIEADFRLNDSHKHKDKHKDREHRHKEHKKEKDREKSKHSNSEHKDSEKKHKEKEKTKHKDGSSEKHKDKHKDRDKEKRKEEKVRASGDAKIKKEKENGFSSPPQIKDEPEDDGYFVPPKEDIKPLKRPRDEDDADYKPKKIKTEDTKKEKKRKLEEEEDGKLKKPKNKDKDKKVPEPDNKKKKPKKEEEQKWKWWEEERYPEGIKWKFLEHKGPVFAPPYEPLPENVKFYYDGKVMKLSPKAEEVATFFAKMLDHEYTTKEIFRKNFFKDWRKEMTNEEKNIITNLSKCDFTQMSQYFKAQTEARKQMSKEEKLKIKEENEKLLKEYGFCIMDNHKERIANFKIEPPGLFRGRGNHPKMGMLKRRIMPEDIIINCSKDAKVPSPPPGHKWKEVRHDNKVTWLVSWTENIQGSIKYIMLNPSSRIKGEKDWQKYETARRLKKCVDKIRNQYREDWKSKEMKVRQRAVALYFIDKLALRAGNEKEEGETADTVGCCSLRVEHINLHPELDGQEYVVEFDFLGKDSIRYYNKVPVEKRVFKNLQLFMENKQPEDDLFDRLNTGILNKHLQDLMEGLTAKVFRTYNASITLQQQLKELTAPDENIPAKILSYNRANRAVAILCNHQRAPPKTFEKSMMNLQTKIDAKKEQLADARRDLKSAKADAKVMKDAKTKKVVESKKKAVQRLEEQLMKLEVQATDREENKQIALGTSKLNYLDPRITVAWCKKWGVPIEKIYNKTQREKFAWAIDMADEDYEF
Put plainly: topoisomerase I-mediated DNA relaxation assay (cell-free). The class given is biochemical. As to conditions: read-out: DNA topoisomerase I inhibition (IC50). The source says:
SKB264 is a TROP2-targeting ADC, which consists of a recombinant humanized anti-TROP2 antibody and a topoisomerase I inhibitor derived from Belotecan (KL610023), integrated together via a sulfonyl pyrimidine-CL2A-carbonate linker. The payload is conjugated with the antibody through irreversible nucleophilic aromatic substitution by tris (2-carboxyethyl) phosphine hydrochloride (TCEP HCl), a reducing agent that can reduce the interchain disulfide bounds. The drug-to-antibody ratio (DAR) of SKB264 was approximately 7.4, which was determined by the reversed-phase chromatography (RPC), and might be the theoretical maximum drug loading number for conventional interchain cysteine conjugation ( Figure 1B ). SKB264 was designed to release payload KL610023 after internalization by TROP2-expressing tumor cells. The inhibitory effect of KL610023 on topoisomerase I was almost similar to that of SN-38, as measured by a topoisomerase I-mediated DNA relaxation assay ( Figure 1C ).
Figure 1 Structure and characterization of SKB264. […] (B) The distribution of the conjugated drug determined by the reverse-phase chromatography analysis (L-0: Unconjugated light chain, L-1: Light chain conjugated with one payload, H-0: Unconjugated heavy chain, H-1: Heavy chain conjugated with one payload, H-2: Heavy chain conjugated with two payloads, H-3: Heavy chain conjugated with three payloads). […]

For another data set, the system named is HCC1806 (TROP2+). Put plainly: cytotoxic assay (CellTiter-Glo, 72 h) HCC1806. The class given is cell-based, human. Particulars: HCC1806, payload comparison, Figure 7C, duplicates; read-out: IC50 inhibition of proliferation of HCC1806 cells. The procedure: Tumor cells were seeded on 96-well plates at the following concentrations: HCC1806 (3,000 cells per well), NCI-N87 (5,000 cells per well), BxPC-3 (2,000 cells per well), Calu-3 (8,000 cells per well), NCI-H23 (TROP2+, 3,000 cells per well), and NCI-H23 (parental, 3,000 cells per well). After overnight incubation, the diluted testing items were added respectively. After 72 h, cell viability was evaluated using a CellTiter-Glo Luminescent Cell Viability Assay (Promega Corp. Madison, WI), following the manufacturer’s instruction.
In general terms: Cellular ATP, detected with luciferase, serves as a proxy for viable cell number.

In the next data set the test system is HCC1806 xenograft. Put plainly: PK-PD study, single dose, HCC1806 xenograft. As to conditions: payload after single i.v. 3 mg/kg SKB264 (KL610023) or IMMU-132 (SN-38), HCC1806 tumor-bearing mice, mean, n = 5. The class given is in vivo, BALB/c nude mice. As to the method:
Phoenix WinNonlin 8.1 was used to calculate the PK parameters in the non-compartment model, including t 1/2, T max, C max, AUC0-t, and AUC0-∞. […] The half maximal effective concentration (EC50) and half maximal inhibitory concentration (IC50) were calculated using a nonlinear regression model with sigmoidal fitting. The in vitro antitumor activities of drugs were evaluated by a two-tailed paired t-test.

The target in another data set is rat TROP2 protein. Description: ELISA binding to rat TROP2. As to the method:
(§1) An enzyme-linked immunosorbent assay (ELISA) was used to evaluate the binding and dynamics affinity. Human TROP2 protein (1 μg/ml) (Sino Biological Inc, Wayne, PA) was coated on a 96-well plate overnight at 4°C. The plate was then blocked by Super block reagent (ScyTek Inc. Logan UT) at room temperature for 1 h. Diluted SKB264, SKB264 mAb, or isotype control (human IgG1 antibody) was added for incubation at 37°C for 1 h. After washing, the diluted (1:10,000) goat anti-human IgG Fc-horseradish peroxidase (HRP) (Abcam, Waltham, MA) was added for further incubation for 45 min at 37°C. Finally, TMB solution was added for absorbance measurement at 450 nm using a SpectraMax Plus384 Microplate reader (Molecular Devices, USA).
(§2) Firstly, the affinities of SKB264 and SKB264 mAb to TROP2 of different species were evaluated by ELISA. […] Therefore, we performed the pharmacokinetic experiments in cynomolgus monkeys.

Another data set deals with NCI-N87 cells. Description: endocytosis (internalization) experiment in NCI-N87. It counts as cell-based, human. The procedure: (§3) To examine whether the anti-TROP2 mAb plays a targeting role via specifically recognizing the highly expressed TROP2 on the surface of tumor cells, the following experiments were conducted ([17]).
(§4) Figure 2 In vitro activities of SKB264. (A) Binding to human TROP2 estimated by ELISA (duplicates, mean ± SEM). (B) SKB264 binding to HCC1806 and NCI-N87 estimated by FACS. (C) Internalization of SKB264 or SKB264 mAb in HCC1806 and NCI-N87 cells. (D) In vitro cell growth inhibitory activity (triplicates, mean ± SEM) in HCC1806, NCI-N87, BxPC-3, Calu-3, NCI-H23 (TROP2+), and NCI-H23 (parental) cells.

Data set [1] deals with TROP2-positive cells NCI-N87. Description: cell-level binding to NCI-N87 by FACS. The arrangement: species or system human. As to conditions: read-out: Antibody EC50 determination on NCI-N87. As to the method: as §3, §4
Data set [2] relates to TROP2-positive cells HCC1806. Put plainly: cell-level binding to HCC1806 by FACS. Also noted: species or system human. As to conditions: read-out: Antibody EC50 determination on HCC1806. As to the method: as §3, §4
In general terms: A flow cytometer gives signals particle by particle.

A further data set addresses T2, mouse TROP2 protein (Mus musculus, UniProt Q8BGV3).
T2 sequence (Q8BGV3 25-317): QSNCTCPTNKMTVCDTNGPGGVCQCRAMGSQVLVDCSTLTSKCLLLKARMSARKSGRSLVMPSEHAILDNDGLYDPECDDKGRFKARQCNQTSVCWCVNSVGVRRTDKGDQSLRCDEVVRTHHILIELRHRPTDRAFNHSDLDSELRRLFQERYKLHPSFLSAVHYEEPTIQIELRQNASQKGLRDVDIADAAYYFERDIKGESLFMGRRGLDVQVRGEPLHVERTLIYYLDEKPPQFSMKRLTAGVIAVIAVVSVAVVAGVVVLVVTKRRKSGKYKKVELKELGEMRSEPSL
Description: ELISA binding to mouse TROP2. As to the method:
as §1, §2
In general terms: An ELISA detects its analyte on a solid surface through an enzyme-linked reagent.

In another data set the target is monkey TROP2. Description: ELISA binding to monkey TROP2. The procedure:
as §1, §2

In a further data set the test system is HCC1806 cells. Put plainly: endocytosis (internalization) experiment in HCC1806. It counts as cell-based, human. The procedure:
as §3, §4

A further data set has as its target T3, Human TROP2 protein (Homo sapiens, UniProt P09758).
T3 sequence (P09758 27-323): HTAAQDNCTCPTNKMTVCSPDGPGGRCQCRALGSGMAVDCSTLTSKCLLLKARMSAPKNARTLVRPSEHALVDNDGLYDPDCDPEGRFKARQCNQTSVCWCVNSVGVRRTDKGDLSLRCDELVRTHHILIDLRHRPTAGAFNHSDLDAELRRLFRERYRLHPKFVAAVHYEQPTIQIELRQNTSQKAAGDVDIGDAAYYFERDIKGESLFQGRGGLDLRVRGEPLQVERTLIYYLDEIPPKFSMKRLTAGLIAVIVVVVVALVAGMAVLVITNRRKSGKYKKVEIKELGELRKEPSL
Description: ELISA binding to human TROP2 protein. Also noted: purchased Sino Biological Inc, Wayne, PA. As to the method:
as §1

On to `CCc1c2c(nc3ccc(O)cc13)-c1cc3c(c(=O)n1C2)COC(=O)[C@]3(O)CC` [SN-38], for which the IC50 at DNA topoisomerase I is 1100 nM. Also, the IC50 with HCC1806 (TROP2+) is 2.61 nM. Further, in the data set with HCC1806 xenograft (plasma), the “AUC0-∞ of payload” value came out at 22.17 ng·h/mL, the AUClast of payload is 19.26 ng·h/mL, the “C max of payload” value came out at 1.32 ng/mL and the “t 1/2 of payload” value came to 15.5 h. In the data set with HCC1806 xenograft (tumor), the “AUC0-∞ of payload” value came out at 448 ng·h/g, the AUClast of payload turned out to be 410 ng·h/g, the “C max of payload” value was 4.5 ng/g and the “T max of payload” value was 24 h. Further, the “t 1/2 of payload” value in the data set with HCC1806 xenograft (tumor) came to 57.4 h.
For orientation: EC50 means the concentration giving half of the maximal effect. Take “SKB264 mAb: humanized anti-TROP2 mAb with the same amino acid sequence as the antibody of IMMU-132”: at rat TROP2 protein, the “EC50 binding to rat TROP2 protein” value was > 5,000 ng/ml. For the same compound, the percentage of endocytosis result in the data set on NCI-N87 cells and in the data set on HCC1806 cells was “increased over time” throughout. The EC50 in data set [1] came to 8.09 nM; in [2], 16.1 nM. Moreover, the “EC50 binding to mouse TROP2 protein” value in the data set with mouse TROP2 protein is > 5,000 ng/ml. Also, the “EC50 of the affinity with monkey TROP2” value at monkey TROP2 amounted to 3.399 ng/mL. Besides, in the data set with Human TROP2 protein, the “EC50 determination on Human TROP2” value is 2.731 ng/mL.

Source of the values: article PMC9817100, “Preclinical profiles of SKB264, a novel anti-TROP2 antibody conjugated to topoisomerase inhibitor, demonstrated promising antitumor efficacy compared to IMMU-132” (Frontiers in Oncology, 2022).
